Here are results for 18 compounds from ChEMBL document CHEMBL1909046, “DrugMatrix in vitro pharmacology data”.

Experiment [1] deals with Matrix metalloproteinase-9 (Homo sapiens, UniProt P14780). In words: biochemical. In kind it is cell-based.
Experiment [2] has as its target T1, Alpha-2C adrenergic receptor (Homo sapiens, UniProt P18825).
T1 sequence (P18825 whole entry): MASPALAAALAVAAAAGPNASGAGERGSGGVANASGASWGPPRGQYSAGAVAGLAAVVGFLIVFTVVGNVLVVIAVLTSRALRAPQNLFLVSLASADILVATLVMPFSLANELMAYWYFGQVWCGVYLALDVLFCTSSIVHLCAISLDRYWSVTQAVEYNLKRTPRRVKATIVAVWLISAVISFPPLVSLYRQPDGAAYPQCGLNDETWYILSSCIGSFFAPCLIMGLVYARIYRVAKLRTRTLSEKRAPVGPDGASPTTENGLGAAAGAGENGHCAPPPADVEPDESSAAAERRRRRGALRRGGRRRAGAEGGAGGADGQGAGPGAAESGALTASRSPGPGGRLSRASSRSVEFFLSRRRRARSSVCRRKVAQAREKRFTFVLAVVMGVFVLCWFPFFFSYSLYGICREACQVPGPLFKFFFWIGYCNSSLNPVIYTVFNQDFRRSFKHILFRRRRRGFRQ
In words: DRUGMATRIX: Adrenergic Alpha-2C radioligand binding (ligand: [3H] MK-912). As to IC50: call rule not given here. Format: cell membranes, Sf9, Membrane. The conditions noted are these: sf9.

Experiment [3] deals with T2, 5-hydroxytryptamine receptor 1A (Rattus norvegicus, UniProt P19327).
T2 sequence (P19327 whole entry): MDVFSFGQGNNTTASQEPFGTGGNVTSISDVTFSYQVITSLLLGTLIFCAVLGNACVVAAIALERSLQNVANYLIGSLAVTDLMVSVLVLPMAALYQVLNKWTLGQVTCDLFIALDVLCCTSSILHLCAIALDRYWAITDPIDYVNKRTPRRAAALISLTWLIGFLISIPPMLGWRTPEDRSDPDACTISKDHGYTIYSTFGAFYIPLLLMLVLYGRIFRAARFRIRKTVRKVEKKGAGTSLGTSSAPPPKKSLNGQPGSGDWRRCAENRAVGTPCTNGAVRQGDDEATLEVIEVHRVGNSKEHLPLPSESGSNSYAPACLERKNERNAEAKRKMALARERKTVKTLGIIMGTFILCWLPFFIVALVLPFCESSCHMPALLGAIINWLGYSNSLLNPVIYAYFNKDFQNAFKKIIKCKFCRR
In kind it is cell membranes, CHO-K1, Membrane.

Experiment [4] has as its target Protein phosphatase 3 catalytic subunit alpha (Homo sapiens, UniProt Q08209). Details: species or system Escherichia coli.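 Also: inhibition of calcineurin (PP2B) enzyme activity, measured with DiFMUP as the substrate; in other assays of this panel Not Active means under 50% inhibition at 10 µM.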
Experiment [5] has as its target T3, Muscarinic acetylcholine receptor M5 (Homo sapiens, UniProt P08912). Also: in other assays of this panel Not Active means under 50% inhibition at 10 µM.
T3 sequence (P08912 whole entry): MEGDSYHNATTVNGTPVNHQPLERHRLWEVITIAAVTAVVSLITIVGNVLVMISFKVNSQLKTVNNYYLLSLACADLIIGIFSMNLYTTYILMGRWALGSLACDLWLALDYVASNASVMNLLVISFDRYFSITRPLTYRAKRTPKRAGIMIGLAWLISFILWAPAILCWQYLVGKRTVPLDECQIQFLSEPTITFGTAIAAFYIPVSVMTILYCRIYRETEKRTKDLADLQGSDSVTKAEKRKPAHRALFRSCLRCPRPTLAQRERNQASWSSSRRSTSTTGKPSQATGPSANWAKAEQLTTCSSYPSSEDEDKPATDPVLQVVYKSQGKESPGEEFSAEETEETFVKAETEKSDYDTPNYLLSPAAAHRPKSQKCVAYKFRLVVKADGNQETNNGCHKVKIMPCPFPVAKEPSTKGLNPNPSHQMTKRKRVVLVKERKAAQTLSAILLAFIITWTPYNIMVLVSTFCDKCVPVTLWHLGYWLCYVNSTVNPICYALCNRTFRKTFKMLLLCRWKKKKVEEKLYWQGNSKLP
Format: cell membranes, CHO-K1, Membrane. The conditions noted are these: cho-k1.

The target of experiment [6] is T4, Neuropeptide Y receptor type 1 (Homo sapiens, UniProt P25929). Also: in other assays of this panel Not Active means under 50% inhibition at 10 µM.
T4 sequence (P25929 whole entry): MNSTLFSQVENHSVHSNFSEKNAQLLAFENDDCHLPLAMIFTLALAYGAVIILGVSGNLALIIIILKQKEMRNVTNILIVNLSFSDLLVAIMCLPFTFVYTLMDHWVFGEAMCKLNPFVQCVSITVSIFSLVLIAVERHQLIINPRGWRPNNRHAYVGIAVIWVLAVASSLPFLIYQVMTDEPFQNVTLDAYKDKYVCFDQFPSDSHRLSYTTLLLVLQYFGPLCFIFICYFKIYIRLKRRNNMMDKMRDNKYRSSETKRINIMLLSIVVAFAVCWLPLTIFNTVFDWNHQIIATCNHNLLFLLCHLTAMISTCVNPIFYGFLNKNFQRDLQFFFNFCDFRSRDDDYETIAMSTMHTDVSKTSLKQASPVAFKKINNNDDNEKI
In kind it is cell membranes, Membrane. As to conditions: sk-n-mc.

Sequence of Matrix metalloproteinase-9 (P14780 whole entry): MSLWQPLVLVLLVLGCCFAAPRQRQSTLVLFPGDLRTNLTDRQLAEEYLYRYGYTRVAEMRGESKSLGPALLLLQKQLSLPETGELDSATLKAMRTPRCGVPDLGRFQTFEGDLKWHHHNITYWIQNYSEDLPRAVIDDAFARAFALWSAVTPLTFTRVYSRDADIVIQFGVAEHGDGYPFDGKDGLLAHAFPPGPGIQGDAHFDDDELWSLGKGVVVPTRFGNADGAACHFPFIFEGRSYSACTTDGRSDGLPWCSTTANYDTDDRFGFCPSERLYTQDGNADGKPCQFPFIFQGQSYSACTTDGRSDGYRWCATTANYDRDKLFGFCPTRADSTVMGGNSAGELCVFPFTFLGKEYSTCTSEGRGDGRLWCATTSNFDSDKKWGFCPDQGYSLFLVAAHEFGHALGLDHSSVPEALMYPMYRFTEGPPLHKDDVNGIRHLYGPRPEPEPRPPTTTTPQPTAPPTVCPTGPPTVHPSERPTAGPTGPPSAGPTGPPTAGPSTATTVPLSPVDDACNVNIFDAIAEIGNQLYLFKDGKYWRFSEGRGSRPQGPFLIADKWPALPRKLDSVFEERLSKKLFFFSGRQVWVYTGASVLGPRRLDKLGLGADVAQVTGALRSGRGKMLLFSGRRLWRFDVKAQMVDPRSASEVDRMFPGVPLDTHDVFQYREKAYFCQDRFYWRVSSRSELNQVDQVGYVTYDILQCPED

For orientation: IC50 means the concentration that inhibits the measured activity by half. For the compound `CC(=O)O[C@H]1C(=O)[C@@]2(C)[C@H]([C@H](OC(=O)c3ccccc3)[C@]3(O)C[C@H](OC(=O)[C@H](O)[C@@H](NC(=O)c4ccccc4)c4ccccc4)C(C)=C1C3(C)C)[C@]1(OC(C)=O)CO[C@@H]1C[C@@H]2O` [PACLITAXEL], the IC50 entry in experiment [1], in experiment [2], in experiment [3] (cho-k1), in experiment [4], in experiment [5] and in experiment [6] was “Not Active” throughout.

In the case of `C[n+]1ccc(-c2cc[n+](C)cc2)cc1.[Cl-].[Cl-]` [PARAQUAT DICHLORIDE], the IC50 result in experiment [1], in experiment [2], in experiment [3] (cho-k1), in experiment [4], in experiment [5] and in experiment [6] was “Not Active” throughout.

Usually Ki stands for the dissociation constant of the complex between target and ligand, obtained from inhibition or displacement. For `CC(C)NCC(O)COc1cccc2[nH]ccc12` (stereo not given) [PINDOLOL], the IC50 result was “Not Active” in experiment [1]; “Not Active” in experiment [2]; 48 nM in experiment [3] (read-out: IC50); “Not Active” in experiment [4]; “Not Active” in experiment [5]; “Not Active” in experiment [6]. In experiment [3] (read-out: Ki), the Ki is 27 nM.

As to `CCn1cc(C(=O)O)c(=O)c2cnc(N3CCCC3)nc21` [PIROMIDIC ACID], the IC50 result in experiment [1], in experiment [2], in experiment [3] (cho-k1), in experiment [4], in experiment [5] and in experiment [6] was “Not Active” in each case.

Consider `C[n+]1ccccc1/C=N/O.[Cl-]` [PRALIDOXIME CHLORIDE], for which the 50% inhibitory concentration (IC50) entry in experiment [1], in experiment [2], in experiment [3] (cho-k1), in experiment [4], in experiment [5] and in experiment [6] was “Not Active” throughout.

Consider `C[C@]12C=CC(=O)C=C1CC[C@@H]1[C@@H]2[C@@H](O)C[C@@]2(C)[C@H]1CC[C@]2(O)C(=O)CO` [PREDNISOLONE], for which the IC50 entry in experiment [1], in experiment [2], in experiment [3] (cho-k1), in experiment [4], in experiment [5] and in experiment [6] was “Not Active” throughout.

In the case of `CC(=O)[C@H]1[C@H](C#N)C[C@H]2[C@@H]3CC=C4C[C@@H](O)CC[C@]4(C)[C@H]3CC[C@@]21C` [PREGNENOLONE CARBONITRILE], the IC50 entry in experiment [1], in experiment [2], in experiment [3] (cho-k1), in experiment [4], in experiment [5] and in experiment [6] was “Not Active” each time.

With `CCCN(CCC)S(=O)(=O)c1ccc(C(=O)O)cc1` [PROBENECID], the IC50 entry in experiment [1], in experiment [2], in experiment [3] (cho-k1), in experiment [4], in experiment [5] and in experiment [6] was “Not Active” each time.

For `CCCNCC(O)COc1ccccc1C(=O)CCc1ccccc1` (stereo not given) [PROPAFENONE], the IC50 entry in experiment [1] was “Not Active”; in experiment [2], “Not Active”; in experiment [3] (read-out: IC50), 1640 nM; in experiment [4], “Not Active”; in experiment [5] it was “Not Active”; in experiment [6], “Not Active”. In experiment [3] (read-out: Ki), the Ki came out at 935 nM.

`CCCOc1ccc(C(=O)OCCN(CC)CC)cc1N` [PROPARACAINE]: the half-inhibitory concentration (IC50) result in experiment [1], in experiment [2], in experiment [3] (cho-k1), in experiment [4], in experiment [5] and in experiment [6] was “Not Active” in each case.

Take `CC(C)c1cccc(C(C)C)c1O` [PROPOFOL]: the IC50 entry in experiment [1], in experiment [2], in experiment [3] (cho-k1), in experiment [4], in experiment [5] and in experiment [6] was “Not Active” each time.

In the case of `C[C@@H]1O[C@@H](O[C@@H]2C=C3CC[C@@H]4[C@H](CC[C@]5(C)[C@@H](c6ccc(=O)oc6)CC[C@]45O)[C@@]3(C)CC2)[C@H](O)[C@H](O)[C@H]1O` [PROSCILLARIDIN], the IC50 result in experiment [1], in experiment [2], in experiment [3] (cho-k1), in experiment [4], in experiment [5] and in experiment [6] was “Not Active” in each case.

As for `Oc1cccc(O)c1O` [PYROGALLOL], the half-maximal inhibitory concentration (IC50) entry in experiment [1], in experiment [2], in experiment [3] (cho-k1), in experiment [4], in experiment [5] and in experiment [6] was “Not Active” throughout.

With AURANOFIN, the concentration for half-maximal inhibition (IC50) entry in experiment [1], in experiment [2], in experiment [3] (cho-k1), in experiment [4], in experiment [5] and in experiment [6] was “Not Active” in each case. Besides, the Ki result in experiment [1], in experiment [2], in experiment [3] (cho-k1), in experiment [4], in experiment [5] and in experiment [6] was “Not Active” in each case.

Consider GADOPENTETATE DIMEGLUMINE, for which the 50% inhibitory concentration (IC50) entry in experiment [1], in experiment [2], in experiment [3] (cho-k1), in experiment [4], in experiment [5] and in experiment [6] was “Not Active” throughout. The Ki entry in experiment [1], in experiment [2], in experiment [3] (cho-k1), in experiment [4], in experiment [5] and in experiment [6] was “Not Active” each time.

As to GENTAMICIN, the IC50 result in experiment [1], in experiment [2], in experiment [3] (cho-k1), in experiment [4], in experiment [5] and in experiment [6] was “Not Active” in each case. In addition, the Ki result in experiment [1], in experiment [2], in experiment [3] (cho-k1), in experiment [4], in experiment [5] and in experiment [6] was “Not Active” in each case.

As to GRAMICIDIN, the half-maximal inhibitory concentration (IC50) entry in experiment [1], in experiment [2], in experiment [3] (cho-k1), in experiment [4], in experiment [5] and in experiment [6] was “Not Active” each time. In addition, the Ki result in experiment [1], in experiment [2], in experiment [3] (cho-k1), in experiment [4], in experiment [5] and in experiment [6] was “Not Active” in each case.

In the case of NYSTATIN, the IC50 result in experiment [1], in experiment [2], in experiment [3] (cho-k1), in experiment [4], in experiment [5] and in experiment [6] was “Not Active” in each case. Further, the Ki entry in experiment [1], in experiment [2], in experiment [3] (cho-k1), in experiment [4], in experiment [5] and in experiment [6] was “Not Active” in each case.
